# Experimental data reported in patent US20210115104A1, “AMYLIN ANALOGUES” (Zealand Pharma A/S, priority 2015, published 2021).
# pEC50: −log10 of the molar value. *1 amine or outer side, *2 acyl side, *3 side chain or, on linkers, in order; H or OH if unused. Where a SMILES comes first, the peptide text is derived from it. Bridges are numbered along the chain shown (N, C = ends). [ ]: non-standard residue; d: D form. The star is where a group is joined. C20 diacid = O=C(O)CCCCCCCCCCCCCCCCCCC(=O)*; γGlu = O=C(O)[C@H](CCC(=O)[*:2])N[*:1]; Hyp = O=C(O)[C@@H]1C[C@@H](O)CN1; NMeI = CC[C@H](C)[C@H](NC)C(=O)O; Aad = N[C@@H](CCCC(=O)O)C(=O)O; Sar = CNCC(=O)O
# Columns and labels:
# [1] = molecular target: T1, human amylin receptor 3 (hAMYR3), hCTR2 co-expressed with hRAMP3 (Homo sapiens, UniProt O60896+P30988); assay: hAMYR3 cAMP assay (AlphaScreen) in COS7 cells; format: cell-based; details: cAMP induction, COS7 cells expressing hAMYR3; Table 1; read-out: hAMYR3 EC50
# T1 construct: expressed in transfected cells
# T1 sequence (P30988 25-474): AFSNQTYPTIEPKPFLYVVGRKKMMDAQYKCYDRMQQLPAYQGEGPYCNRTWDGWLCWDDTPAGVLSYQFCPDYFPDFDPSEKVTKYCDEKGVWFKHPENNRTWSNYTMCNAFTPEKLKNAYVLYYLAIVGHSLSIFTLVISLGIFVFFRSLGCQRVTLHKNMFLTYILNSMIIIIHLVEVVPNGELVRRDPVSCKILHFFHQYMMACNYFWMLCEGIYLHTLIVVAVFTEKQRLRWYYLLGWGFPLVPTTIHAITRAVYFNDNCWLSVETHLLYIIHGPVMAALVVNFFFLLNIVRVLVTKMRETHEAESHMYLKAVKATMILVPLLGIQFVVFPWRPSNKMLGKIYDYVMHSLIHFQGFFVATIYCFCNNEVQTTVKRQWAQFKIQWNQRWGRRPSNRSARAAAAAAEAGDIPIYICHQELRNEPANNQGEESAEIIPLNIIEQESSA
# T1 sequence (O60896 24-148 partner): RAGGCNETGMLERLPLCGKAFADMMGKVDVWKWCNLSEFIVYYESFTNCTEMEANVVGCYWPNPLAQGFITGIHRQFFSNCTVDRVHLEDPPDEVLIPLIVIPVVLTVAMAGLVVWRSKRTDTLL
# Procedure, shortened: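 Stable COS7 clone co-expressing hCTR2 and hRAMP3 was exposed to increasing peptide concentrations in Tyrode buffer (pH 7.4) with 100 µM IBMX and 0.1% casein for 15 min at 37 °C. Lysate cAMP was measured by AlphaScreen; EC50 came from 4-parameter logistic fitting.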
# [2] = molecular target: T2, human calcitonin receptor (hCTR2) (Homo sapiens, UniProt P30988); assay: hCTR2 cAMP assay (AlphaScreen) in COS7 cells; format: cell-based; details: cAMP induction, COS7 cells expressing hCTR2; Table 1; read-out: hCTR2 EC50
# T2 construct: expressed in transfected cells
# T2 sequence (P30988 25-474): T1 sequence (P30988 25-474)
# Procedure, shortened: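 Stable hCTR2 clone in RAMP-naïve COS7 cells stimulated 15 min at 37 °C with increasing peptide concentrations in Tyrode buffer pH 7.4 containing IBMX and 0.1% casein. cAMP in lysates measured by AlphaScreen; EC50 from 4-parameter logistic fit.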
Compound,pEC50 [1],pEC50 [2]
"CC[C@H](C)[C@@H](C(=O)N[C@@H](CC(C)C)C(=O)N[C@@H](CO)C(=O)N[C@@H](CO)C(=O)N[C@H](C(=O)N[C@@H](CCC(=O)O)C(=O)N[C@H](C(=O)NCC(=O)N[C@@H](CO)C(=O)N[C@@H](CC(N)=O)C(=O)N[C@H](C(=O)N1C[C@H](O)C[C@H]1C(N)=O)[C@@H](C)O)C(C)C)[C@@H](C)O)N(C)C(=O)[C@H](C)NC(=O)CN(C)C(=O)[C@H](Cc1ccccc1)NC(=O)[C@H](CO)NC(=O)[C@H](CO)NC(=O)[C@H](CCCNC(=N)N)NC(=O)[C@H](CCCC(=O)O)NC(=O)[C@H](CC(C)C)NC(=O)[C@H](Cc1ccccc1)NC(=O)[C@H](Cc1c[nH]cn1)NC(=O)[C@H](C)NC(=O)[C@H](CC(C)C)NC(=O)[C@H](CCCNC(=N)N)NC(=O)[C@H](CCC(N)=O)NC(=O)[C@@H](NC(=O)[C@H](C)NC(=O)[C@@H]1CSSC[C@H](NC(=O)[C@H](CCCNC(=N)N)NC(=O)CC[C@H](NC(=O)CCCCCCCCCCCCCCCCCCC(=O)O)C(=O)O)C(=O)N[C@@H](CC(N)=O)C(=O)N[C@@H]([C@@H](C)O)C(=O)N[C@@H](C)C(=O)N[C@@H]([C@@H](C)O)C(=O)N1)[C@@H](C)O [Compound 50, [19CD]-isoGlu-R-C( )-NTAT-C( )-ATQRLAHFL-Aad-RSSF-Gly(Me)-A-Ile(Me)-LSSTEVGSNT-Hyp-NH2] ({C20 diacid-γGlu}-RCNTATCATQRLAHFL[Aad]RSSF[Sar]A[NMeI]LSSTEVGSNT[Hyp]-NH2; disulfide 2-7)",9.72,9.92
"CC[C@H](C)[C@@H](C(=O)N[C@@H](CC(C)C)C(=O)N[C@@H](CO)C(=O)N[C@@H](CO)C(=O)N[C@H](C(=O)N[C@@H](CCC(=O)O)C(=O)N[C@H](C(=O)NCC(=O)N[C@@H](CO)C(=O)N[C@@H](CC(N)=O)C(=O)N[C@H](C(=O)N1CCC[C@H]1C(N)=O)[C@@H](C)O)C(C)C)[C@@H](C)O)N(C)C(=O)[C@H](C)NC(=O)CN(C)C(=O)[C@H](Cc1ccccc1)NC(=O)[C@H](CO)NC(=O)[C@H](CO)NC(=O)[C@H](CCCNC(=N)N)NC(=O)[C@H](CCC(N)=O)NC(=O)[C@H](CC(C)C)NC(=O)[C@H](Cc1ccccc1)NC(=O)[C@H](Cc1c[nH]cn1)NC(=O)[C@H](C)NC(=O)[C@H](CC(C)C)NC(=O)[C@H](CCCNC(=N)N)NC(=O)[C@H](CCC(=O)O)NC(=O)[C@@H](NC(=O)[C@H](C)NC(=O)[C@@H]1CSSC[C@H](NC(=O)[C@H](CCCNC(=N)N)NC(=O)CC[C@H](NC(=O)CCCCCCCCCCCCCCCCCCC(=O)O)C(=O)O)C(=O)N[C@@H](CC(N)=O)C(=O)N[C@@H]([C@@H](C)O)C(=O)N[C@@H](C)C(=O)N[C@@H]([C@@H](C)O)C(=O)N1)[C@@H](C)O [Compound 62, [19CD]-isoGlu-R-C( )-NTAT-C( )-ATERLAHFLQRSSF-Gly(Me)-A-Ile(Me)-LSSTEVGSNTP-NH2] ({C20 diacid-γGlu}-RCNTATCATERLAHFLQRSSF[Sar]A[NMeI]LSSTEVGSNTP-NH2; disulfide 2-7)",9.66,9.74
"CC[C@H](C)[C@@H](C(=O)N[C@@H](CC(C)C)C(=O)N[C@@H](CO)C(=O)N[C@@H](CO)C(=O)N[C@H](C(=O)N[C@@H](CCC(=O)O)C(=O)N[C@H](C(=O)NCC(=O)N[C@@H](CO)C(=O)N[C@@H](CC(N)=O)C(=O)N[C@H](C(=O)N1C[C@H](O)C[C@H]1C(N)=O)[C@@H](C)O)C(C)C)[C@@H](C)O)N(C)C(=O)[C@H](C)NC(=O)CN(C)C(=O)[C@H](Cc1ccccc1)NC(=O)[C@H](CO)NC(=O)[C@H](CO)NC(=O)[C@H](CCCNC(=N)N)NC(=O)[C@H](CCC(N)=O)NC(=O)[C@H](CC(C)C)NC(=O)[C@H](Cc1ccccc1)NC(=O)[C@H](Cc1c[nH]cn1)NC(=O)[C@H](C)NC(=O)[C@H](CC(C)C)NC(=O)[C@H](CCCNC(=N)N)NC(=O)[C@H](CCC(N)=O)NC(=O)[C@@H](NC(=O)[C@H](C)NC(=O)[C@@H]1CSSC[C@H](NC(=O)[C@H](CCCNC(=N)N)NC(=O)CC[C@H](NC(=O)CCCCCCCCCCCCCCCCCCC(=O)O)C(=O)O)C(=O)N2CCC[C@H]2C(=O)N[C@@H]([C@@H](C)O)C(=O)N[C@@H](C)C(=O)N[C@@H]([C@@H](C)O)C(=O)N1)[C@@H](C)O [Compound 64, [19CD]-isoGlu-R-C( )-PTAT-C( )-ATQRLAHFLQRSSF-Gly(Me)-A-Ile(Me)-LSSTEVGSNT-Hyp-NH2] ({C20 diacid-γGlu}-RCPTATCATQRLAHFLQRSSF[Sar]A[NMeI]LSSTEVGSNT[Hyp]-NH2; disulfide 2-7)",9.82,9.96
"CC[C@H](C)[C@@H](C(=O)N[C@@H](CC(C)C)C(=O)N[C@@H](CO)C(=O)N[C@@H](CO)C(=O)N[C@H](C(=O)N[C@@H](CCC(=O)O)C(=O)N[C@H](C(=O)NCC(=O)N[C@@H](CO)C(=O)N[C@@H](CC(N)=O)C(=O)N[C@H](C(=O)N1CCC[C@H]1C(N)=O)[C@@H](C)O)C(C)C)[C@@H](C)O)N(C)C(=O)[C@H](C)NC(=O)CN(C)C(=O)[C@H](Cc1ccccc1)NC(=O)[C@H](CO)NC(=O)[C@H](CO)NC(=O)[C@H](CCCNC(=N)N)NC(=O)[C@H](CCC(N)=O)NC(=O)[C@H](CC(C)C)NC(=O)[C@H](Cc1ccccc1)NC(=O)[C@H](CC(=O)O)NC(=O)[C@H](C)NC(=O)[C@H](CC(C)C)NC(=O)[C@H](CCCNC(=N)N)NC(=O)[C@H](CCC(=O)O)NC(=O)[C@@H](NC(=O)[C@H](C)NC(=O)[C@@H]1CSSC[C@H](NC(=O)[C@H](CCCNC(=N)N)NC(=O)CC[C@H](NC(=O)CCCCCCCCCCCCCCCCCCC(=O)O)C(=O)O)C(=O)N[C@@H](CC(N)=O)C(=O)N[C@@H]([C@@H](C)O)C(=O)N[C@@H](C)C(=O)N[C@@H]([C@@H](C)O)C(=O)N1)[C@@H](C)O [Compound 66, [19CD]-isoGlu-R-C( )-NTAT-C( )-ATERLADFLQRSSF-Gly(Me)-A-Ile(Me)-LSSTEVGSNTP-NH2] ({C20 diacid-γGlu}-RCNTATCATERLADFLQRSSF[Sar]A[NMeI]LSSTEVGSNTP-NH2; disulfide 2-7)",9.52,9.72
"CC[C@H](C)[C@@H](C(=O)N[C@@H](CC(C)C)C(=O)N[C@@H](CO)C(=O)N[C@@H](CO)C(=O)N[C@H](C(=O)N[C@@H](CCC(=O)O)C(=O)N[C@H](C(=O)NCC(=O)N[C@@H](CO)C(=O)N[C@@H](CC(N)=O)C(=O)N[C@H](C(=O)N1C[C@H](O)C[C@H]1C(N)=O)[C@@H](C)O)C(C)C)[C@@H](C)O)N(C)C(=O)[C@H](C)NC(=O)CN(C)C(=O)[C@H](Cc1ccccc1)NC(=O)[C@H](CO)NC(=O)[C@H](CO)NC(=O)[C@H](CCCNC(=N)N)NC(=O)[C@H](CCC(N)=O)NC(=O)[C@H](CC(C)C)NC(=O)[C@H](Cc1ccccc1)NC(=O)[C@H](CC(=O)O)NC(=O)[C@H](C)NC(=O)[C@H](CC(C)C)NC(=O)[C@H](CCCNC(=N)N)NC(=O)[C@H](CCC(=O)O)NC(=O)[C@@H](NC(=O)[C@H](C)NC(=O)[C@@H]1CSSC[C@H](NC(=O)[C@H](CCCNC(=N)N)NC(=O)CC[C@H](NC(=O)CCCCCCCCCCCCCCCCCCC(=O)O)C(=O)O)C(=O)N[C@@H](CC(N)=O)C(=O)N[C@@H]([C@@H](C)O)C(=O)N[C@@H](C)C(=O)N[C@@H]([C@@H](C)O)C(=O)N1)[C@@H](C)O [Compound 68, [19CD]-isoGlu-R-C( )-NTAT-C( )-ATERLADFLQRSSF-Gly(Me)-A-Ile(Me)-LSSTEVGSNT-Hyp-NH2] ({C20 diacid-γGlu}-RCNTATCATERLADFLQRSSF[Sar]A[NMeI]LSSTEVGSNT[Hyp]-NH2; disulfide 2-7)",9.54,9.49
"CC[C@H](C)[C@@H](C(=O)N[C@@H](CC(C)C)C(=O)N[C@@H](CO)C(=O)N[C@@H](CO)C(=O)N[C@H](C(=O)N[C@@H](CCC(=O)O)C(=O)N[C@H](C(=O)NCC(=O)N[C@@H](CO)C(=O)N[C@@H](CO)C(=O)N[C@H](C(=O)N1C[C@H](O)C[C@H]1C(N)=O)[C@@H](C)O)C(C)C)[C@@H](C)O)N(C)C(=O)[C@H](C)NC(=O)CN(C)C(=O)[C@H](Cc1ccccc1)NC(=O)[C@H](CO)NC(=O)[C@H](CO)NC(=O)[C@H](CCCNC(=N)N)NC(=O)[C@H](CCC(N)=O)NC(=O)[C@H](CC(C)C)NC(=O)[C@H](Cc1ccccc1)NC(=O)[C@H](Cc1c[nH]cn1)NC(=O)[C@H](C)NC(=O)[C@H](CC(C)C)NC(=O)[C@H](CCCNC(=N)N)NC(=O)[C@H](CCC(=O)O)NC(=O)[C@@H](NC(=O)[C@H](C)NC(=O)[C@@H]1CSSC[C@H](NC(=O)[C@H](CCCNC(=N)N)NC(=O)CC[C@H](NC(=O)CCCCCCCCCCCCCCCCCCC(=O)O)C(=O)O)C(=O)N2CCC[C@H]2C(=O)N[C@@H]([C@@H](C)O)C(=O)N[C@@H](C)C(=O)N[C@@H]([C@@H](C)O)C(=O)N1)[C@@H](C)O [Compound 70, [19CD]-isoGlu-R-C( )-PTAT-C( )-ATERLAHFLQRSSF-Gly(Me)-A-Ile(Me)-LSSTEVGSST-Hyp-NH2] ({C20 diacid-γGlu}-RCPTATCATERLAHFLQRSSF[Sar]A[NMeI]LSSTEVGSST[Hyp]-NH2; disulfide 2-7)",9.44,9.46
